# Activity calls are given as the source filed them. No cut-off for these calls is given here.
# Legend:
# [1] = target: Voltage-gated inwardly rectifying potassium channel KCNH2 (Homo sapiens, UniProt Q12809); assay: Displacement of [3H]dofetilide from human ERG expressed in HEK293 cell membranes
# Heart [2] = assay: Toxicity in isolated rabbit heart model assessed as adverse side effect upto 1.5 uM; assay type: tissue-based, Oryctolagus cuniculus
# Heart [3] = assay: Toxicity in isolated rabbit heart model assessed as adverse side effect upto 10 uM; assay type: tissue-based, Oryctolagus cuniculus
# [4] = target: T1, C-C chemokine receptor type 5 (Homo sapiens, UniProt P51681); assay: Antagonist activity at human CCR5 expressed in CHO cells assessed as MIP-1-alpha-induced Ca2+ mobilization; assay type: functional, cell-based
# T1 sequence (P51681 whole entry): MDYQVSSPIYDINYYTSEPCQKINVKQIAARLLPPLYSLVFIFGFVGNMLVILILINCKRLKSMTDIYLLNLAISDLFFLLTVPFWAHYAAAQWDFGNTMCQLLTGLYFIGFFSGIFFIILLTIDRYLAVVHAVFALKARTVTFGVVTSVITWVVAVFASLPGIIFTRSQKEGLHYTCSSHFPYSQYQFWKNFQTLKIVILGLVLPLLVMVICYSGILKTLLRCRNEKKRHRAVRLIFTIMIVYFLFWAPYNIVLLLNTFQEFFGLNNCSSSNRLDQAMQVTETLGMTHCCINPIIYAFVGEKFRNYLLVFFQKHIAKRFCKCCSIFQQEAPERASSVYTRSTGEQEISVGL
# [5] = target: T2, C-C chemokine receptor type 5 (Macaca fascicularis, UniProt P61814); assay: Antagonist activity at cynomolgus monkey CCR5 expressed in CHO cells assessed as MIP-1-alpha-induced Ca2+ mobilization; assay type: functional, cell-based
# [6] = target: T1, C-C chemokine receptor type 5; assay: Antagonist activity at human CCR5 expressed in L1.2 cells assessed as MIP-1-alpha-induced Ca2+ mobilization; assay type: functional, cell-based
# Cytochrome P450 1A2 = Cytochrome P450 1A2 (Homo sapiens, UniProt P05177); assay: Inhibition of CYP1A2; assay type: ADME
# Cytochrome P450 2C9 = Cytochrome P450 2C9 (Homo sapiens, UniProt P11712); assay: Inhibition of CYP2C9; assay type: ADME
# Cytochrome P450 2C19 = Cytochrome P450 2C19 (Homo sapiens, UniProt P33261); assay: Inhibition of CYP2C19; assay type: ADME
# Cytochrome P450 2D6 = Cytochrome P450 2D6 (Homo sapiens, UniProt P10635); assay: Inhibition of CYP2D6; assay type: ADME
# Chain of Cytochrome P450 2D6 (P10635 whole entry): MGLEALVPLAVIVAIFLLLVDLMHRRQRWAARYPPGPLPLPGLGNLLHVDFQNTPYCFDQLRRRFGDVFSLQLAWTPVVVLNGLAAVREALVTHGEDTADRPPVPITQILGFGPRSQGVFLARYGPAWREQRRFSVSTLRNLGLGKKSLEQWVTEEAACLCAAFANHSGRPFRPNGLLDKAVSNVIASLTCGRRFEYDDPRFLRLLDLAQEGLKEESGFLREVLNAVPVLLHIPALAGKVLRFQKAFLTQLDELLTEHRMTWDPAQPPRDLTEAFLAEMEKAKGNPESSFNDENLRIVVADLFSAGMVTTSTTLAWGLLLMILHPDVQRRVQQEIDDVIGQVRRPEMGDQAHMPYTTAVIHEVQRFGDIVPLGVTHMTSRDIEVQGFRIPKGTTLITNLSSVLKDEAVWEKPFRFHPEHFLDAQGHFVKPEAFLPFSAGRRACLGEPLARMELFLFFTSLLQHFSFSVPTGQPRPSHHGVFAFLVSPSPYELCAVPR
# Cytochrome P450 3A4 = Cytochrome P450 3A4 (Homo sapiens, UniProt P08684); assay: Inhibition of CYP3A4; assay type: ADME
# Chain of Cytochrome P450 3A4 (P08684 whole entry): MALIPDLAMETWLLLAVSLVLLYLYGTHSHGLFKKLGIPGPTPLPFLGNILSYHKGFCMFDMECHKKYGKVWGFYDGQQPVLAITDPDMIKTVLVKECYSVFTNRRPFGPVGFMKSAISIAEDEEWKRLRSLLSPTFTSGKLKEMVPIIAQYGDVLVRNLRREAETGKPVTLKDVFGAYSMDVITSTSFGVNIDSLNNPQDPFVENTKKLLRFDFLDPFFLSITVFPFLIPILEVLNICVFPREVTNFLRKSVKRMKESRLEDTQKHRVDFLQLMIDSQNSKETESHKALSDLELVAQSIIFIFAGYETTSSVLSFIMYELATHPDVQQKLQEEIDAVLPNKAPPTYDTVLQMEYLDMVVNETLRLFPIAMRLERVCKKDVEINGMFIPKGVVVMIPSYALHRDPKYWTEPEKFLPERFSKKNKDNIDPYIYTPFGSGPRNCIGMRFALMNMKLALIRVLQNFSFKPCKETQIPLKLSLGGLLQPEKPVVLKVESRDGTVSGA
# [7] = Dissociation constant, pKa of the compound; assay type: physicochemical
# [8] = Partition coefficient, log P of the compound; assay type: physicochemical; conditions: octanol/water
# [9] = Lipophilicity, log D at pH 6.8; assay type: physicochemical; conditions: buffer
# [10] = Intrinsic clearance in human liver microsomes; assay type: ADME, Microsome
# [11] = Intrinsic clearance in rat liver microsomes; assay type: ADME, Microsome
# [12] = Solubility in water; assay type: physicochemical
# [13] = Solubility at pH 7.4; assay type: physicochemical; conditions: buffer
# [14] = Permeability from apical to basolateral side of human Caco-2 cell membranes; assay type: ADME, cell-based; conditions: read-out: permeability (converted)
# [15] = Permeability from basolateral to apical side of human Caco-2 cell membranes; assay type: ADME, cell-based; conditions: read-out: permeability (converted)
# [16] = Protein binding in human plasma; assay type: ADME, cell-free
# [17] = Protein binding in rat plasma; assay type: ADME, cell-free
# [18] = target: C-C chemokine receptor type 1 (Homo sapiens) (UniProt P32246); assay: Inhibition of CCR1 upto 1 uM
# [19] = target: C-C chemokine receptor type 2 (Homo sapiens) (UniProt P41597); assay: Inhibition of CCR2 upto 1 uM
# Chain of C-C chemokine receptor type 2 (Homo sapiens) (P41597 whole entry, looked up): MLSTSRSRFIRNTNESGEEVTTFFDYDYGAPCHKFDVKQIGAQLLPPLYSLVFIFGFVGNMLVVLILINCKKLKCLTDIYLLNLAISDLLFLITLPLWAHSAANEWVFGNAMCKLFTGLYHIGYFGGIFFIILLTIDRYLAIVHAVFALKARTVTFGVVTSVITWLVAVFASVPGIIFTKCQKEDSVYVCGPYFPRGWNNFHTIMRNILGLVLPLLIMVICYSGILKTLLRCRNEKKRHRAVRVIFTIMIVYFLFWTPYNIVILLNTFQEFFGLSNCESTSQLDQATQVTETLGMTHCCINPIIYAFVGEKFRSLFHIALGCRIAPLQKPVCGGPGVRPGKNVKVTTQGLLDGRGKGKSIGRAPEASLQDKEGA
# [20] = target: C-C chemokine receptor type 3 (Homo sapiens) (UniProt P51677); assay: Inhibition of CCR3 upto 1 uM
# [21] = target: C-C chemokine receptor type 4 (Homo sapiens) (UniProt P51679); assay: Inhibition of CCR4 upto 1 uM
# [22] = target: C-C chemokine receptor type 6 (Homo sapiens) (UniProt P51684); assay: Inhibition of CCR6 upto 1 uM
# Chain of C-C chemokine receptor type 6 (Homo sapiens) (P51684 whole entry): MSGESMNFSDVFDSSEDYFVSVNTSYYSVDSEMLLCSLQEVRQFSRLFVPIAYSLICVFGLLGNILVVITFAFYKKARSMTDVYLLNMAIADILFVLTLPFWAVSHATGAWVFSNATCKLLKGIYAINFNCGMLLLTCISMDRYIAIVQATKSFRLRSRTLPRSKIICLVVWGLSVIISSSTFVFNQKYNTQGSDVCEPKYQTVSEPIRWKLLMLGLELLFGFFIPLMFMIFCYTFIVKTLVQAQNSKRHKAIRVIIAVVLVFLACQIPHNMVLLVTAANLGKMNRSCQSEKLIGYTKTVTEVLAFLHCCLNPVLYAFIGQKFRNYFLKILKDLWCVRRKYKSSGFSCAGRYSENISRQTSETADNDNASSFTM
# [23] = target: C-C chemokine receptor type 7 (Homo sapiens) (UniProt P32248); assay: Inhibition of CCR7 upto 1 uM
# Chain of C-C chemokine receptor type 7 (Homo sapiens) (P32248 whole entry): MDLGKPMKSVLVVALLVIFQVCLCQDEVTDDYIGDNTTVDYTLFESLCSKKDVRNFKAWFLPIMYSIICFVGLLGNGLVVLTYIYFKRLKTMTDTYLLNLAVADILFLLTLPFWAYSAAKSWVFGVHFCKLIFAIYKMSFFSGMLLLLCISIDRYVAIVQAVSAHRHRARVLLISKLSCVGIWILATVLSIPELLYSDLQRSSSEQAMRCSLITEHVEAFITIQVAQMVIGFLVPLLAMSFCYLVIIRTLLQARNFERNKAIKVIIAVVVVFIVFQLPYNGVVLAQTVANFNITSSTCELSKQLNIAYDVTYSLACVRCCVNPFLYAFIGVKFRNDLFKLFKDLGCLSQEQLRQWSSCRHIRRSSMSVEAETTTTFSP
# [24] = target: C-X-C chemokine receptor type 1 (Homo sapiens) (UniProt P25024); assay: Inhibition of CXCR1 upto 1 uM
# [25] = target: C-X-C chemokine receptor type 2 (Homo sapiens) (UniProt P25025); assay: Inhibition of CXCR2 upto 1 uM
# [26] = target: C-X-C chemokine receptor type 3 (Homo sapiens) (UniProt P49682); assay: Inhibition of CXCR3 upto 1 uM
# [27] = target: C-X-C chemokine receptor type 4 (Homo sapiens) (UniProt P61073); assay: Inhibition of CXCR4 upto 1 uM
# Chain of C-X-C chemokine receptor type 4 (Homo sapiens) (P61073 whole entry): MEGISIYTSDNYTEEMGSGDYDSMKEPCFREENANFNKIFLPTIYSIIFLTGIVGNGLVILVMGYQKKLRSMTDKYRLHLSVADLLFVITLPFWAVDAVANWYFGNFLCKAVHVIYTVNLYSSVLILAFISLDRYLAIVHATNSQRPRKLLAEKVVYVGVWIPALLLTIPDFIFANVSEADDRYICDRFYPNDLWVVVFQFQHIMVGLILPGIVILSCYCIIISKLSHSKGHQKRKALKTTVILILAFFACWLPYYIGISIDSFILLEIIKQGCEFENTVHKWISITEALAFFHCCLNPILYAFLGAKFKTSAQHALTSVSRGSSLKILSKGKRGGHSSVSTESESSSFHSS
# [28] = target: C-X-C chemokine receptor type 6 (Homo sapiens) (UniProt O00574); assay: Inhibition of CXCR6 upto 1 uM
# Chain of C-X-C chemokine receptor type 6 (Homo sapiens) (O00574 whole entry, looked up): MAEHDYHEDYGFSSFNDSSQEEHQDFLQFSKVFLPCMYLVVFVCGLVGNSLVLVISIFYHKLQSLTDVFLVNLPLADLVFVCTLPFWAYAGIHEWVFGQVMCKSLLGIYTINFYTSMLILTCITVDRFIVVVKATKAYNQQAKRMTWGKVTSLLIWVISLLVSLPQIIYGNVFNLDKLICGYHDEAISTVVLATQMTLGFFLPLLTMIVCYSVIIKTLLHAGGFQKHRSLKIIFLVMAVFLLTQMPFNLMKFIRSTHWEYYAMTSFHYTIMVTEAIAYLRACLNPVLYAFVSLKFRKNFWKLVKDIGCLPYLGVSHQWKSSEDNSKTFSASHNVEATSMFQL
# [29] = Inhibition of muscarinic acetylcholine receptor at 1 uM
# [30] = AUC in rat at 1 mg/kg, po; assay type: ADME, organism-based; design: dose 1 mg/kg, route oral; conditions: plasma
# [31] = Cmax in rat at 1 mg/kg, po; assay type: ADME, organism-based; design: dose 1 mg/kg, route oral; conditions: in vivo
# [32] = Tmax in po dosed rat; assay type: ADME, organism-based; conditions: in vivo
# [33] = Half life in po dosed rat; assay type: ADME, organism-based; conditions: in vivo
# [34] = Oral bioavailability in rat; assay type: ADME, organism-based; conditions: in vivo
# [35] = AUC in cynomolgus monkey at 1 mg/kg, po; assay type: ADME, organism-based, Macaca fascicularis; design: dose 1 mg/kg, route oral; conditions: plasma
# [36] = Cmax in cynomolgus monkey at 1 mg/kg, po; assay type: ADME, organism-based, Macaca fascicularis; design: dose 1 mg/kg, route oral; conditions: in vivo
# [37] = Tmax in po dosed cynomolgus monkey; assay type: ADME, organism-based, Macaca fascicularis; conditions: in vivo
# [38] = Half life in po dosed cynomolgus monkey; assay type: ADME, organism-based, Macaca fascicularis; conditions: in vivo
# [39] = Oral bioavailability in cynomolgus monkey; assay type: ADME, organism-based, Macaca fascicularis; conditions: in vivo
# [40] = AUC in dog at 1 mg/kg, po; assay type: ADME, organism-based, Canis lupus familiaris; design: dose 1 mg/kg, route oral; conditions: plasma
# [41] = Cmax in dog at 1 mg/kg, po; assay type: ADME, organism-based, Canis lupus familiaris; design: dose 1 mg/kg, route oral; conditions: in vivo
# [42] = Tmax in po dosed dog; assay type: ADME, organism-based, Canis lupus familiaris; conditions: in vivo
# [43] = Half life in po dosed dog; assay type: ADME, organism-based, Canis lupus familiaris; conditions: in vivo
# [44] = Oral bioavailability in dog; assay type: ADME, organism-based, Canis lupus familiaris; conditions: in vivo
# [45] = Mean residence time in cynomolgus monkey; assay type: ADME, organism-based, Macaca fascicularis; conditions: in vivo
# [46] = Mean residence time in dog; assay type: ADME, organism-based, Canis lupus familiaris; conditions: in vivo
# Cynomolgus monkey [47] = assay: Prolongation of graft survival in cynomolgus monkey kidney transplantation model at 20 mg/kg, sc bid; assay type: functional, Macaca fascicularis; conditions: route subcutaneous
# Cynomolgus monkey [48] = assay: Prolongation of graft survival in cynomolgus monkey kidney transplantation model at 20 mg/kg, sc bid in presence of cyclosporine A; assay type: functional, Macaca fascicularis; conditions: route subcutaneous
# Cynomolgus monkey [49] = assay: Prolongation of graft survival in cynomolgus monkey kidney transplantation model at 40 mg/kg, po qd in presence of cyclosporine A; assay type: functional, Macaca fascicularis
# [50] = target: C-C chemokine receptor type 5 (Mus musculus) (UniProt P51682); assay: Binding affinity to mouse CCR5
# [51] = target: T1, C-C chemokine receptor type 5; assay: Displacement of [125I]RANTES from human CCR5 expressed in CHO cells; assay type: cell-based
# [52] = target: T2, C-C chemokine receptor type 5; assay: Displacement of radiolabeled MIP-1alpha from cynomolgus monkey CCR5 expressed in CHO cells; assay type: cell-based
# Heart [53] = assay: Toxicity in isolated rabbit heart model assessed as adverse side effect upto 0.5 uM; assay type: tissue-based, Oryctolagus cuniculus; conditions: ex_vivo
# Heart [54] = assay: Toxicity in isolated rabbit heart model assessed as adverse side effect upto 1.0 uM; assay type: tissue-based, Oryctolagus cuniculus; conditions: ex_vivo
# Heart [55] = assay: Toxicity in isolated rabbit heart model assessed as adverse side effect upto 5.0 uM; assay type: tissue-based, Oryctolagus cuniculus
# Chain of Voltage-gated inwardly rectifying potassium channel KCNH2 (Q12809 whole entry): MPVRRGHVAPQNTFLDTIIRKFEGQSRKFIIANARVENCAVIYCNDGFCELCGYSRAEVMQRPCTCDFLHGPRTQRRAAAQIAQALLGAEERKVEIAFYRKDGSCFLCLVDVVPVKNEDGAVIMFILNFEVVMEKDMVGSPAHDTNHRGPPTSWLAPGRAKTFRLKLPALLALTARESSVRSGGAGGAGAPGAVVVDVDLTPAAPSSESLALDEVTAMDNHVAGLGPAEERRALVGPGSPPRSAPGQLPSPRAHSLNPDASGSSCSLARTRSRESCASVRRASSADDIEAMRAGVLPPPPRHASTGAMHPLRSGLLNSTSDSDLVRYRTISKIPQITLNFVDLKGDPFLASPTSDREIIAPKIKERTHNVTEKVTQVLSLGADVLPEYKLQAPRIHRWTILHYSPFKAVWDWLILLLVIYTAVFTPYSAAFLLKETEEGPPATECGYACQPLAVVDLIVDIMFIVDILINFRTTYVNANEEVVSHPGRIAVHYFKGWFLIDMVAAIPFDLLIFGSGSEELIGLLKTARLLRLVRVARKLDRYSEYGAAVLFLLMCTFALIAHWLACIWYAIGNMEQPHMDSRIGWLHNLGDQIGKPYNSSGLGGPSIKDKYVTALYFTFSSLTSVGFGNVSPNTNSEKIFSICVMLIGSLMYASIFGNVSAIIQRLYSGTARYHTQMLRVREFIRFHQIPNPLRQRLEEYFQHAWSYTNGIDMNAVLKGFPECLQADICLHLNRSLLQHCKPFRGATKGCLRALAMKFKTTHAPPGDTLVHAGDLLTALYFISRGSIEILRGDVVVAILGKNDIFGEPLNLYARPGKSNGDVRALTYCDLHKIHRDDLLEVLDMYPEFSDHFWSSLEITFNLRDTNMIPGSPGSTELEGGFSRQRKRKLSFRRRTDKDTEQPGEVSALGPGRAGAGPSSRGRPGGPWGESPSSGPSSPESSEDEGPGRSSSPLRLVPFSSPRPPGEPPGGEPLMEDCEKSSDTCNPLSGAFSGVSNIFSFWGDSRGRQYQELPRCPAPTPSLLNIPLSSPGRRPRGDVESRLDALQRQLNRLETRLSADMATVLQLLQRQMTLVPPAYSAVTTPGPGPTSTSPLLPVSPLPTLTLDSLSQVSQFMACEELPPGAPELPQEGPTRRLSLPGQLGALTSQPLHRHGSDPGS
compound,measurement,setting,value
Cc1nc[n+]([O-])c(C)c1C(=O)N1CCC(C)(N2CCC(N(c3ccccc3)c3ccccc3)CC2)CC1,IC50,[1],1200 nM
same,Activity,Heart [2],Non-toxic
Cc1cc[n+]([O-])c(C)c1C(=O)N1CCC(C)(N2CCC(N(c3ccccc3)c3cccnc3)CC2)CC1,Activity,Heart [3],Non-toxic
same,IC50,[4],43.6 nM
same,IC50,[5],64 nM
same,IC50,[6],16.2 nM
same,IC50,Cytochrome P450 1A2,> 10000 nM
same,IC50,Cytochrome P450 2C9,> 10000 nM
same,IC50,Cytochrome P450 2C19,> 10000 nM
same,IC50,Cytochrome P450 2D6,> 10000 nM
same,IC50,Cytochrome P450 3A4,5300 nM
same,pKa,[7],5.5
same,logP,[8],2.2
same,logD,[9],0.8
same,microsomal CLint,[10],< 15 µL/min/mg
same,microsomal CLint,[11],< 15 µL/min/mg
same,solubility,[12],1000 µg/mL
same,solubility,[13],> 12500 µg/mL
same,Papp A→B,[14],0.667 ×10⁻⁶ cm/s
same,Papp B→A,[15],10.8 ×10⁻⁶ cm/s
same,fraction unbound,[16],0.62
same,fraction unbound,[17],0.48
same,Activity,[18],inactive
same,Activity,[19],inactive
same,Activity,[20],inactive
same,Activity,[21],inactive
same,Activity,[22],inactive
same,Activity,[23],inactive
same,Activity,[24],inactive
same,Activity,[25],inactive
same,Activity,[26],inactive
same,Activity,[27],inactive
same,Activity,[28],inactive
same,Activity,[29],inactive
same,AUC,[30],41 ng·h/mL
same,Cmax,[31],5.8 ng/mL
same,Tmax,[32],0.4 h
same,half-life,[33],8.1 h
same,bioavailability,[34],22%
same,AUC,[35],503 ng·h/mL
same,Cmax,[36],93 ng/mL
same,Tmax,[37],0.5 h
same,half-life,[38],6.3 h
same,bioavailability,[39],43%
same,AUC,[40],278 ng·h/mL
same,Cmax,[41],84 ng/mL
same,Tmax,[42],0.6 h
same,half-life,[43],7.9 h
same,bioavailability,[44],56%
same,MRT,[45],6 h
same,MRT,[46],8 h
same,Activity,Cynomolgus monkey [47],6 days
same,Activity,Cynomolgus monkey [48],>100 days
same,Activity,Cynomolgus monkey [49],39 days
same,Activity,[50],inactive
same,IC50,[51],5.1 nM
same,IC50,[52],8.1 nM
Cc1cc[n+]([O-])c(C)c1C(=O)N1CCC(C)(N2CCC(N(Cc3ccccc3)c3ccccc3)CC2)CC1,Activity,Heart [53],Non-toxic
CC1(N2CCC(N(c3ccccc3)c3cccnc3)CC2)CCN(C(=O)c2c(Cl)c[n+]([O-])cc2Cl)CC1,Activity,Heart [54],Non-toxic
same,IC50,[51],1 nM
same,IC50,[52],4.2 nM
Cc1cc[n+]([O-])c(C)c1C(=O)N1CCC(C)(N2CCC(N(Cc3cccc(C#N)c3)c3ccccc3)CC2)CC1,Activity,Heart [54],Non-toxic
Cc1ncnc(C)c1C(=O)N1CCC(C)(N2CCC(N(c3ccccc3)c3ccccc3)CC2)CC1,Activity,Heart [53],Non-toxic
CC1(N2CCC(N(c3ccccc3)c3cccnc3)CC2)CCN(C(=O)c2cccc3ccccc23)CC1,Activity,Heart [54],Non-toxic
same,IC50,[51],1.3 nM
same,IC50,[52],3.6 nM
Cc1cccc(C)c1C(=O)N1CCC(C)(N2CCC(N(c3ccccc3)c3cccnc3)CC2)CC1,Activity,Heart [53],Non-toxic
same,IC50,[51],0.5 nM
same,IC50,[52],1.1 nM
Cc1cccc(C)c1C(=O)N1CCC(C)(N2CCC(N(c3ccccc3)c3ccncc3)CC2)CC1,Activity,Heart [53],Non-toxic
same,IC50,[51],2 nM
same,IC50,[52],9.8 nM
Cc1cccc(C)c1C(=O)N1CCC(C)(N2CCC(N(Cc3ccccc3)c3ccccc3)CC2)CC1,IC50,[1],670 nM
same,Activity,Heart [2],Non-toxic
Cc1ccnc(C)c1C(=O)N1CCC(C)(N2CCC(N(c3ccccc3)c3ccccc3)CC2)CC1,Activity,Heart [53],Non-toxic
same,IC50,[1],570 nM
Cc1cc[n+]([O-])c(C)c1C(=O)N1CCC(C)(N2CCC(N(c3ccccc3)c3ccccc3)CC2)CC1,Activity,Heart [53],Non-toxic
same,IC50,[52],3.4 nM
CC1(N2CCC(N(c3ccccc3)c3cccnc3)CC2)CCN(C(=O)c2c(Cl)cncc2Cl)CC1,Activity,Heart [53],Non-toxic
same,IC50,[51],0.8 nM
same,IC50,[52],3.2 nM
Cc1nc(CN(c2ccccc2)C2CCN(C3(C)CCN(C(=O)c4c(C)cc[n+]([O-])c4C)CC3)CC2)cs1,Activity,Heart [55],Non-toxic
same,IC50,[1],12200 nM
same,IC50,[51],1.7 nM
same,IC50,[52],107 nM
Cc1cc[n+]([O-])c(C)c1C(=O)N1CCC(C)(N2CCC(N(c3ccccc3)c3ccccn3)CC2)CC1,Activity,Heart [54],Non-toxic
same,IC50,[51],1.8 nM
same,IC50,[52],12 nM
Cc1cccc(C)c1C(=O)N1CCC(C)(N2CCC(N(c3ccccc3)c3ccccc3)CC2)CC1,Activity,Heart [54],Non-toxic
same,IC50,[1],150 nM
Cc1cccnc1C(=O)N1CCC(C)(N2CCC(N(c3ccccc3)c3cccnc3)CC2)CC1,Activity,Heart [53],Non-toxic
same,IC50,[51],6.5 nM
same,IC50,[52],39 nM
Cc1ccnc(C)c1C(=O)N1CCC(C)(N2CCC(N(c3ccccc3)c3cccnc3)CC2)CC1,Activity,Heart [54],Non-toxic
same,IC50,[51],0.9 nM
same,IC50,[52],0.8 nM

# Reference: ChEMBL document CHEMBL1141522, “Reduced cardiac side-effect potential by introduction of polar groups: discovery of NIBR-1282, an orally bioavailable CCR5 antagonist which is active in vivo” (Bioorg Med Chem Lett, 2008)
